Laboratory results from US8653049B2, “Normuramyl glycopeptide compounds” (priority 2008, dated 2014).
Entries after “also recorded” stand apart in the source; their conditions may differ. Where two headings read alike, the source gives them in different places.

What was measured:
[1] = rabbits, 3 rabbits per group
Method: The test was conducted in an authorised laboratory, ITEST plus s.r.o., Bilé Vchýnice 10, 533 13 Vápno u Prelouce, Czech Republic, according to guide-lines CL 2005.
Rabbits (New Zeeland albino, 4-6 kg, 3 animals per group) were used for testing.
Liposomal preparations of muramyl glycopeptide derivatives were administered s.c. (100 nmol/kg). Empty liposomes were used as negative control and the liposomal as well as the free form of muramyl dipeptide (MDP) (25 μg/kg, corresponding to 50.7 nmol/kg) served as positive control. Temperature was measured in 1, 2, 3, 4,6 and 24 hour intervals.
Empty liposomes were used as negative control; and liposomal as well as free muramyl dipeptide (MDP) (50.7 nmol/kg) served as positive control. B30-norAbu-MDP (MT01, structure on page 5) served as additional control. Temperature was measured in 1, 2, 3, 4, 6 and 24 h intervals. The preparation passed the test if the Sum of ΔTmax remained below 1.1° C. (3 rabbits per group)

[2] = system: r-hsp90 (Candida albicans hsp90) specific IgG antibodies; assay: Proteoliposome vaccine against C. albicans hsp90: antibody (humoral) response, ELISA; type: in vivo, BALB/c mice; settings: Experiment 12.2; liposomal compound (5%) + Ni-HSP90, boost day 14; FIG. 13
Method: Proteoliposomes were prepared by coupling recombinant hsp90 antigen (r-hsp90, 6×HISTag) via a metal chelating lipid to liposomes containing muramyl glycopeptide derivatives as adjuvant component. BALB/c […] mice 4 to 5 weeks old (female 20±2 g, 5 animal per group) were immunized by the intradermal route either with 20 μg of free or liposomal r-hsp90 (volume of 60 μl) either with or without L18-norAbu-MDP and boosted 21 days later by the same composition of experimental vaccine. FCA was used as positive control r-hsp90. Liposomal vaccine composition 20 μg of rHSP90 antigen, 5% metallochelating lipid, 5% particular MT analogue, 90% phospolipids.
Blood samples were collected from the tail vein into heparinised capillary PCV tubes. After centrifugation, the upper part of the tube, containing […] blood serum, was cut off, thrown into […] diluting solution and thoroughly shaken. Thus, a basic dilution of 1:33 was obtained. The pre-diluted sera were kept at −20° C. Blood samples were collected before the first immunization, 2 weeks thereafter and subsequently at weekly intervals up to the 4th week after the second immunisation. Specific IgG antibodies in blood serum samples were determined by the standard indirect ELISA procedure. The data obtained were processed statistically using the non-parametric Mann-Whitney U-test.
Proteoliposomes with muramyl glycopeptide derivatives were prepared as described above, but the boost was carried out already after 14 days. The liposomal vaccine composition was as for Experiment Set 1: 20 μg of rHSP90 antigen, 5% metallochelating lipid, 5% particular MT analogue, 90% phospolipids.
Controls: Aluminum hydroxide (AlOH) and Freund complete adjuvans (FCA) were used as positive controls. PBS with empty liposomes was used as negative control (control). Humoral response was tested at day 14 after vaccination (post priming) and at day 20 after vaccination (post booster). Antibody titres were wer assayed by ELISA.

[3] = system: NK sensitive K562 cell line; assay: NK cell cytotoxicity of human PBMC, 51Cr-release against K562; type: cell-based; settings: range 0.1 μM-100 μM; FIG. 28
Method: Ex vivo effects of test compounds on NK cells were evaluated on human peripheral blood mononuclear cells (PBMC). The NK cell cytotoxicity of healthy donors in the presence or absence of test compounds was measured in standard 4 hrs ^51Cr-release assay against NK sensitive K562 cell line in effector (PBMC) to target (K562) ratio 16:1. Test compounds were added at a concentration of 10^−7 mol/ml.
Testing of compounds 23, 24, 32, 33, 40 and 41 for their capacity to induce cell-mediated cytotoxicity of human eripheral blood mononuclear cells (PBMCs) is shown in FIGS. 27 and 28. All donors were healthy. […] The cytotoxicity of untreated controls (30.5%) was renormalized to 100%.

[4] = system: GM-CFC progenitors in bone marrow; assay: GM-CFC recovery, test compounds before sub-lethal irradiation; type: in vivo, ICR/CD-1 mice; settings: s.c. 100 nmol 24 h before 6 Gy, day 13; FIGS. 33-35
Method: (§1) Institite of Cancer Research (ICR/CD-1) mice (female, age of 3 months, 3-4 per group) were stimulated by s.c. administration of test compounds (volume of 200 μl, 100 nmol per dose) 24 h before sublethal γ-irradiation (6 Gy, ^60Co γray source Chisostat, Chirana Ltd., Czech Republic, at a dose of 0.285 Gy/min.). Mice were sacrified at day 13 and recovery of GM-CFC in femour was assayed by counting of colonies (CFC) formed after cultivation in medium. Non-irradiated mice were used as control for normal GM-CFC count in femour. PBS and empty liposomes were used as controls for spontaneous recovery. Liposomal MDP was used as reference standard.
(§2) The following parameters of hemopoiesis were evaluated: • a) Blood leukocyte counts and bone marrow cellularity. Blood leukocytes (samples of blood drawn from an incision of the tail vein) and nucleated cell elements of the femoral bone marrow (femoral diaphyses flushed with saline) were estimated by means of Coulter Counter (Model ZN, Coulter Electronics). • b) Colony-forming cells in spleen. Endogenous spleen colony-forming units (E-CFUs) were measured on day 9 post the whole-body irradiation with 6.5 Gy (5 mice per group) according to Till and McCulloch. • c) GM-CFC progenitors in bone marrow. Femoral bone marrow cells were obtained from mice by flushing the femour with sterile IMDM medium. Harvested cells were calculated and diluted to 1.5×10^5 cells/ml and plated in triplicate in a semisolid environment created by plasma clot (Iscovess modification of Dulbecco's medium, 20% of fetal calf serum, 10% of colony-stimulating factor, 10% of citrate plasma, and CaCl2 1.5 mg/ml). The cultures were incubated for 7 days at 37° C. in 5% CO2. Colonies of at least 50 cells were scored at 40× magnification.
Statistical significance between individual experimental groups of mice in hemopoietic parameters was calculated by one-way analysis of variance. The Newman-Keuls test for comparison of all pairs of columns and the Dunnett test for comparison of all columns with the control column were used in the analysis.

[5] = system: GM-CFC progenitors in bone marrow; assay: GM-CFC recovery, test compounds after sub-lethal irradiation; type: in vivo, ICR/CD-1 mice; settings: s.c. 100 nmol 24 h after 6 Gy; FIG. 36
Method: as §1, §2
The method is exactly as described above except that the test compounds (volume of 200 μl, 100 nmol per dose) were administered 24 h after sublethal γ-irradiation (6 Gy).

[6] = system: Salmonella enteritidis; assay: Stimulation of innate immunity against Salmonella Enteritidis; settings: liposomal, 20 nmol per dose p.o. 72 and 24 h before infection (LD50); 5 mice
[7] = system: Friend leukemia virus (FLV); assay: Friend leukemia virus infection: survival, TER-119+ cells, spleen; settings: for clonal expansion of TER-119+ erythroleukaemia cells in spleen / spleen size (weight): day 16; for clonal expansion of TER-119+ erythroleukaemia cells in spleen: FIG. 24; for spleen size (weight): FIG. 25
[8] = system: NK-sensitive YAC1 target cells; assay: NK cell-mediated cytotoxicity of spleen mononuclear cells, 51Cr-release against YAC1; settings: FLV-inoculated mice, day 16, 18 h incubation with YAC1; FIG. 26
[9] = system: myelin basic protein induced EAE; assay: Experimental allergic encephalomyelitis (EAE), Th1 adjuvant activity; type: in vivo, guinea pigs; settings: for Positive animals (%) (incidence of EAE): 50 μg myelin basic protein + 1 mg test compound in FIA, footpads, up to day 21, FCA positive control
[10] = system: bone-marrow cells; assay: Restoration of bone-marrow proliferation in azathioprine-suppressed mice; type: in vivo, CBA/J mice; set-up: key: +: restoration under the level of intact bone-marrow response; ++: restoration above the level of intact bone-marrow response; settings: two i.v. doses of 200 nmol 30 and 6 h before oral azathioprine 5 mg per mouse; bone marrow 66 h after
Method: CBA/J male mice 8 weeks old, weighing 18-20 g were administered two i.v. doses of 200 nmol test substance per mouse 30 and 6 h prior to oral application of azathioprine (Imuran Wellcome, 5 mg per mouse in a volume of 0.5 ml distilled water). Bone marrow (lavage of femurs) was sampled 66 h after the application of azathioprine. Pooled suspensions of bone-marrow cells from 3 mice were cultivated in RPMI-1640 medium with 5% of fetal bovine serum (both from Sigma) at a concentration of 2×10^5 cells/0.2 ml either without mitogen (spontaneous proliferation) or in the presence of T (phytohemagglutinin, PHA Murex, 50 μg/ml; concanavalin A, Con A Sigma, 1, 2.5 or 5 μg/ml) or B (lipopolysaccharide, LPS E. coli O55 Difco, 5 μg/ml) mitogens for 48 h at 37° C. in 5% CO2. Proliferative activity was measured by incorporation of 3H-thymidine (1 μCi/well) and expressed as stimulation index SI=mean cpm cultures with mitogen/mean cpm controls without mitogen. Statistical significance of stimulation was evaluated by the Student's t test.

[11] = liposomal preparations s.c. 100 nmol/kg, passes if below 1.1° C.

Structure (SMILES)	+ΔTmax (Sum of ΔTmax) [1, 11] [°C]	dose response of NK cell activity [3]	Day 6 Intest.: clear/infected/dead [6]	Day 6 Liver: clear/infected/dead [6]	Day 6 Lungs: clear/infected/dead [6]	Day 6 Spleen: clear/infected/dead [6]	Day 12 Intest.: clear/infected/dead [6]	Day 12 Liver: clear/infected/dead [6]	Day 12 Lungs: clear/infected/dead [6]	Day 12 Spleen: clear/infected/dead [6]	clonal expansion of TER-119+ erythroleukaemia cells in spleen [7]	spleen size (weight) [7]	Positive animals (%) (incidence of EAE) [9]	Restoration of BM Proliferation in Immunosuppressive Therapy [10]	further results
CCCCCCCCCCCCCCCCCC(=O)NCCCC[C@H](NC(=O)CC[C@@H](NC(=O)[C@H](CC)NC(=O)CO[C@H]1[C@H](O[C@@H]2O[C@H](CO)[C@@H](O)[C@H](O)[C@H]2NC(C)=O)[C@@H](CO)OC(O)[C@@H]1NC(C)=O)C(N)=O)C(=O)O (stereo partly drawn) [Compound 40, N-[2-O-(2-Acetamido-2-deoxy-βD-glucopyranosyl-(1→4)-2-acetamido-2,3-dideoxy-D-glucopyranose-3-yl)-glycoloyl]-L-α-aminobutanoyl-D-isoglutaminyl-L-lysine(stearoyl)]	0.6	negative dose response	4/1/0	4/1/0	4/1/0	5/0/0	0/2/3	1/1/3	1/1/3	1/1/3	dose-dependent, positive effect	spleen size slightly lower than the control	–	–	antibody response to r-hsp90 proteoliposomes [2]: strong and comparable to AlOH; GM-CFC progenitor cells in bone marrow [4]: acceptable performance; GM-CFC progenitor cells in bone marrow [5]: strongest performers; also recorded: strongest effect; also recorded: one of the best effects; NK cell activity (cell-mediated cytotoxicity of SMCs) [8]: stimulate NK cell functional activity
CCCCCCCCCCCCCCC(CCCCCCCCCCCCCC)C(=O)NCCCC[C@H](NC(=O)CC[C@@H](NC(=O)[C@H](CC)NC(=O)CO[C@H]1[C@H](O[C@@H]2O[C@H](CO)[C@@H](O)[C@H](O)[C@H]2NC(C)=O)[C@@H](CO)OC(O)[C@@H]1NC(C)=O)C(N)=O)C(=O)O (stereo partly drawn) [Compound 41, N-[2-O-(2-Acetamido-2-deoxy-β-D-glucopyranosyl-(1→4)-2-acetamido-2,3-dideoxy-D-glucopyranose-3-yl)-glycoloyl]-L-α-aminobutanoyl-D-isoglutaminyl-L-lysine(2-tetradecylhexadecanoyl)]	0.8	negative dose response	2/3/0	2/3/0	4/1/0	2/3/0	1/2/2	2/1/2	2/1/2	2/1/2	pronounced opposite effect	increased spleen size	–	–	survival, late phase (days 55 and 59), long-term ([7]; 10 μmol i.p., non-liposomal, control 0%, FIG. 23): ensure long-term survival; survival, early phase (day 43) ([7]; 10 μmol i.p., non-liposomal, saline control 82%, FIG. 23): survival rate worse than control
CC(=O)N[C@H]1[C@H](O[C@H]2[C@H](O[C@H](C)C(=O)N[C@@H](C)C(=O)N[C@H](CCC(=O)O)C(N)=O)[C@@H](NC(C)=O)C(O)O[C@@H]2CO)O[C@H](CO)[C@@H](O)[C@@H]1O (stereo partly drawn) [GMDP, glucosaminylmuramyl dipeptide]	–	–	–	–	–	–	–	–	–	–	–	–	65	++	–
CC(=O)N[C@@H]1[C@@H](O[C@H](C)C(=O)N[C@@H](C)C(=O)N[C@H](CCC(=O)O)C(N)=O)[C@H](O)[C@@H](CO)O[C@H]1O [MDP, muramyldipeptide]	–	–	–	–	–	–	–	–	–	–	–	–	58	+	+ΔTmax (Sum of ΔTmax) ([1]; MDP positive control 25 μg/kg (50.7 nmol/kg), liposomal or free): 2.9 °C
CC[C@H](NC(=O)CO[C@H]1[C@H](O[C@@H]2O[C@H](CO)[C@@H](O)[C@H](O)[C@H]2NC(C)=O)[C@@H](CO)OC(O)[C@@H]1NC(C)=O)C(=O)N[C@H](CCC(=O)O)C(N)=O (stereo partly drawn) [norAbu-GMDP]	–	–	–	–	–	–	–	–	–	–	–	–	90	++	Th1 stimulation (EAE) ([9]; guinea pigs sensitized with bovine MBP in IFA + compound, FIG. 31): superior to MDP and GMDP as Th1 adjuvants
CCC(NC(=O)COC1C(O)C(CO)OC(O)C1NC(C)=O)C(=O)NC(CCC(=O)O)C(N)=O (stereo not drawn) [norAbu-MDP]	–	–	–	–	–	–	–	–	–	–	–	–	–	+	–
